Data published in US6309825A, “Analytical and therapeutic agents” (University of Leicester, priority 1995, dated 2001).

Legend:
[1] = molecular target: T1, avidin (Gallus gallus, UniProt P02701); test: Enzyme-linked avidin binding assay, competition experiments; conditions: competitor 10 μM, co-incubation, avidin-HRP, paraformaldehyde-fixed DNA
T1 construct: mature chain without signal peptide
Protocol: Treatment of DNA with methylene blue leads to the oxidation of deoxyguanosine residues to 8-oxodeoxyguanosine. DNA (0.5 mg/ml in water) was incubated in the presence of methylene blue (20 μg/ml final concentration in 0.1 M tris, pH 8.5) in a petri dish on ice shielded from a white light source by 0.5 cm water in an upturned petri dish lid (light source to DNA distance was 3 cm). Irradiation was for 3 hours at which time solid sodium chloride was added to a final concentration of 1 M and the DNA precipitated with ethanol. The DNA was removed and dissolved in de-ionized water. The DNA was re-precipitated and washed twice more to remove any remaining methylene blue.
Avidin-horse radish peroxidase (avidin-HRP) (Sigma) binding to methylene blue-treated DNA was compared to its binding to untreated DNA. Treatment of DNA with methylene blue leads to the generation of oxidised base products including 8-oxodeoxyguanosine. Competition experiments were carried out to define the specificity of binding of avidin to DNA. Damaged and native DNA bind to ELISA plates and in initial experiments, native and methylene blue-treated double-stranded and single-stranded DNA were bound to ELISA plates (Immuno plate MAXISORP (RTM), Nunc) at 50 μg/ml in PBS (50 μl/well). However since it is difficult to quantify the amount of DNA remaining after the various procedures, Millipore MULTISCREEN (RTM)filtration plates were used in this experiment. Native and methylene blue-treated double-stranded and single-stranded DNA ([…] in water) was added to appropriate wells ([…]) of MULTISCREEN-HV 96-well plates. […] Following washing with PBS 3 times, detection of bound peroxidase-labelled avidin was performed using 50 μl/well of o-phenylenediamine (0.5 mg/ml in 0.05 M phosphate-citrate, pH 5.0, and containing 0.03% w/v sodium perborate as a substitute for H2 O2) as substrate; the reaction was stopped after 20 minutes at room temperature using 2M […] (25 μl/well) and the product determined spectrophotometrically at 492 nm. […]

[2] = system: monoclonal antibody to biotin; test: Fluorescent binding assay (FBA) with FITCS-conjugated anti-biotin monoclonal antibody; parameters: species or system goat; conditions: base bound to a substratum of fixed cells
Protocol: Avidin-FITCS conjugate was from Sigma (A 2050), as was monoclonal, goat anti-biotin-FITCS conjugate antibody (clone number BN-34) (F4024).
(§1) Cultures of IMR 32 cells were grown in 96-well plates as described above and allowed to differentiate. Untreated cultures were fixed and permeabilised as above to provide a substrate to which 8-oxodeoxyguanosinewould bind thus permitting FAAs to be performed. Various concentrations of either the normal or the oxidised base were incubated on these plates (100 μl/well) for 1 hour. The ELISA plates were then washed 3 times with PBS before visualising bound base with either avidin-conjugated FITCS (1:200 in PBS for 1 hour) or with a FITCS-conjugated anti-biotin monoclonal antibody (1:80 in PBS for 1 hour). The level of binding was quantified with a fluorescence plate reader (Denley, Billingshurst, U.K.), excitation 485 nm and emission 535 nm.

[3] = molecular target: T1, avidin; test: Fluorescent binding assay (FBA) with avidin-FITCS; conditions: for concentration at which avidin binding reached a maximum: base bound to a substratum of fixed cells, avidin-FITCS
Protocol: as §1

[4] = molecular target: T1, avidin; test: Inhibition of avidin binding to hydrogen peroxide treated cells; conditions: avidin conjugate preincubated with competitor; all at 100 μM (biotin 10 μM)
Protocol: Cells were washed in warm PBS. Cultures were fixed and permeabilised with ice-cold methanol for 15 minutes, rehydrated in PBS before blocking with PBS containing 10% (w/v) normal goat serum (NGS). […] The control, PBS in the absence of competitor, was treated in parallel. […] Fixed cells were incubated with the solutions for 1 hour in the dark at room temperature. The slides were washed three times in PBS before coverslips were mounted on the slides using VECTORSHIELD (RTM) (Vector Laboratories, Peterborough, U.K.), a glycerol-based anti-bleaching mountant.

[5] = molecular target: T1, avidin; test: Capillary electrophoresis analysis of binding
Protocol: Capillary electrophoresis was performed using a Beckman […].) controlled by accompanying System Gold (RTM) software. All analyses were carried out using an untreated fused silica capillary of 57 cm total length and 75 μm internal diameter. […] Samples were then placed on ice until analysed by CE. The electrophoresis solution was 10 mM sodium tetraborate (pH 9.3) filtered through a 0.45 μm filter. Samples were loaded using positive pressure (nominal 0.5 psi) for 5 seconds at 25° C. The run time was 10 minutes under an applied voltage of 30 kV with a rise time of 0.17 minutes (approx. 10.2 seconds). Detection was by absorbence at 200 nm and comparison with known standards. Concentration of each compound was estimated from peak height.

[6] = system: IMR 32 cells; test: cells
Protocol: After differentiation, media was carefully aspirated and prewarmed Hanks buffered salt solution (HBSS) added to each well (200 μl) with or without various concentrations of freshly prepared hydrogen peroxide. The cultures were incubated with hydrogen peroxide for 1 hour after which the HBSS was replaced with fresh media (α-MEM with 5% (v/v) HIFCS and 1% (v/v) non-essential amino acids) and allowed to recover for 24 hours under standard incubation conditions before cell death was assessed using the MTT assay and binding of avidin assessed by fluorescence analysis.
Cells were prefixed by the addition of 2% (w/v) paraformaldehyde (in phosphate buffered saline (PBS) at pH 7.4) for 15 mins after washing the cells with PBS. Cells were washed in warm PBS. Cultures were fixed and permeabilised with ice-cold methanol for 15 minutes, rehydrated in PBS before blocking with PBS containing 10% (w/v) normal goat serum (NGS). The blocking solution was washed off with PBS containing 0.2% (w/v) NGS.

[7] = system: IMR 32 cells; test: MTT assay after UVA exposure; format: cell-based; conditions: α-tocopherol pre-incubation, 24 hours post-irradiation
Protocol: (§2) Differentiated cells were exposed to UVA irradiation with or without preincubation with the lipid-phase antioxidant α-tocopherol. The level of UVA irradiation was monitored in each experiment with a radiometer. Antioxidant was added to the existing medium 24 hours prior to irradiation at a final concentration of 200 μM (stock made up immediately prior to use in ethanol). […] Medium was removed prior to irradiation and cells washed in HBSS. The cells were irradiated from above at room temperature. Controls were sham irradiated. The cells were fixed as described below.

[8] = system: IMR 32 cells; test: UVA exposure with α-tocopherol preincubation, fluorescent assessment of avidin binding; format: cell-based; conditions: 200 μM preincubation
Protocol: as §2
Cells were washed in warm PBS. Cultures were fixed and permeabilised with ice-cold methanol for 15 minutes, rehydrated in PBS before blocking with PBS containing 10% (w/v) normal goat serum (NGS). […] DNA damage was visualised with avidin-conjugated fluorescein isothiocyanate (FITCS) (1:200 in PBS for 1 hour) or with a FITCS-conjugated anti-biotin monoclonal antibody (1:80 in PBS for 1 hour) for either fluorescence microscopy or for quantitative assessment with a fluorescence plate reader (Denley, Billingshurst, U.K.).

T1 sequence (P02701 25-152): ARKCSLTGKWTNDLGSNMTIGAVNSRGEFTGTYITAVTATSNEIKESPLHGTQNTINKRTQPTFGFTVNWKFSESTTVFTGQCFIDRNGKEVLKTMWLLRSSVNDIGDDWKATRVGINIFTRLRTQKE

Nc1nc2c([nH]c(=O)n2[C@H]2C[C@H](O)[C@@H](CO)O2)c(=O)[nH]1 [8-oxodeoxyguanosine]
inhibition of avidin binding to double-stranded, methylene blue treated DNA [1]: greatest inhibition
concentration at which binding of the monoclonal antibody to biotin reached a maximum [2]: 10^-9 M
theoretical sensitivity of avidin binding (detectable amount) ([3]; assuming 100% binding of 8-oxodeoxyguanosine to the substratum): 10^4 molecules
concentration at which avidin binding reached a maximum [3]: 10^-15 M
inhibition of avidin-FITCS binding to hydrogen peroxide treated cells [4]: inhibited binding

Nc1nc2[nH]c(=O)[nH]c2c(=O)[nH]1 [8-oxoguanine]
rate of binding to avidin ([5]; purely chemical system, minimal preincubation): extremely rapid

O=C(O)CCCC[C@@H]1SC[C@@H]2NC(=O)N[C@@H]21 [biotin]
inhibition of avidin-FITCS binding to hydrogen peroxide treated cells [4]: prevented binding
recovery of unbound biotin after incubation with avidin ([5]; biotin 100 μM, various concentrations of avidin, theoretical values assume 4 biotin molecules per avidin): very close to the theoretical values expected

Nc1nc2c(ncn2[C@H]2C[C@H](O)[C@@H](CO)O2)c(=O)[nH]1 [deoxyguanosine]
concentration at which binding of the monoclonal antibody to biotin reached a maximum [2]: 10^-9 M
concentration at which avidin binding reached a maximum [3]: 10^-6 M

Nc1nc2nc[nH]c2c(=O)[nH]1 [guanine]
inhibition of avidin binding to double-stranded, methylene blue treated DNA [1]: inhibited binding
inhibition of avidin-FITCS binding to hydrogen peroxide treated cells [4]: did not

Nc1nc2c(ncn2[C@@H]2O[C@H](CO)[C@@H](O)[C@H]2O)c(=O)[nH]1 [guanosine]
inhibition of avidin binding to double-stranded, methylene blue treated DNA [1]: inhibited binding

OO [hydrogen peroxide]
hydrogen peroxide concentration at which the level of avidin binding plateaued ([6]; 1 hour exposure, 24 hours recovery): 100 nM
minimal effective concentration ([6]; Homo sapiens, IMR-32, 1 h, read-out: hydrogen peroxide concentration at which avidin binding was statistically different from control): 0.01 µM

Cc1c(C)c2c(c(C)c1O)CCC(C)(CCCC(C)CCCC(C)CCCC(C)C)O2 (stereo not drawn) [α-tocopherol]
effect on UVA-induced increase in MTT metabolism [7]: prevented
effect on avidin binding to UVA irradiated cells, longer periods of irradiation ([8]; 24 hours post-irradiation): not effective in reducing binding
effect on avidin binding to UVA irradiated cells, short periods of irradiation ([8]; 24 hours post-irradiation): reduced the level of avidin binding
effect on avidin binding over the range of irradiation times studied ([8]; multiple range ANOVA): significantly (p=0.003) reduced the binding of avidin
